In ChEMBL document CHEMBL5291721, “A preclinical secondary pharmacology resource illuminates target-adverse drug reaction associations of marketed drugs” (Nat Commun, 2023):
“And” between values parts separate entries of the source, which are not always exact repeats. Equal entries are not always repeated.

What was measured:
[1] = target: T1, Alpha-1A adrenergic receptor (Homo sapiens, UniProt P35348); type: functional, cell-based
T1 sequence (P35348 whole entry): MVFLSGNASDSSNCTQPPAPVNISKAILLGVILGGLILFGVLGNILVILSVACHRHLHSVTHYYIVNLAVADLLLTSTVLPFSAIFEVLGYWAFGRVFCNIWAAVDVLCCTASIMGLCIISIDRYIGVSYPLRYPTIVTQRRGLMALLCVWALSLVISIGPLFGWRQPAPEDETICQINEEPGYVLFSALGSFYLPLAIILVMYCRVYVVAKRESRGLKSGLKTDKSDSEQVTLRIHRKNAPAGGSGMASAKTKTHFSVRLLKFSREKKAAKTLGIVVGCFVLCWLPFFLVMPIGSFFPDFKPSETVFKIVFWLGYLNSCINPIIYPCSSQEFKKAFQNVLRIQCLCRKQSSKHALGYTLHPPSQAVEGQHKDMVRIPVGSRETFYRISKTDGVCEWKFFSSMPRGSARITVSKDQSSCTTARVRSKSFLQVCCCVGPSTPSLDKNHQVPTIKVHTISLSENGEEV

[2] = target: T2, Alpha-2C adrenergic receptor (Homo sapiens, UniProt P18825); type: functional
T2 sequence (P18825 whole entry): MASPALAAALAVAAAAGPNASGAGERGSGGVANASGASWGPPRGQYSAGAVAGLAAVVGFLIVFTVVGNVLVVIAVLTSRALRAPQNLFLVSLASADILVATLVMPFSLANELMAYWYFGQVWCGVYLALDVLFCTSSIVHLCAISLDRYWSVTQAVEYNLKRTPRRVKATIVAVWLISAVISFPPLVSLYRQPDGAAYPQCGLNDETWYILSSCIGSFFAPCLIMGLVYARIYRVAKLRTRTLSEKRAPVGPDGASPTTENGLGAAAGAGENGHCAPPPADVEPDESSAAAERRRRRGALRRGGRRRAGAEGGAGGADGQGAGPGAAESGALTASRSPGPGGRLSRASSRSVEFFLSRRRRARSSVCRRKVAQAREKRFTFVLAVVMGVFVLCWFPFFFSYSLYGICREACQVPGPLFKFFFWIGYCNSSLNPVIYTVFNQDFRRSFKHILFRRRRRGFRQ

Estrogen receptor = target: T3, Estrogen receptor (Homo sapiens, UniProt P03372)
T3 sequence (P03372 whole entry): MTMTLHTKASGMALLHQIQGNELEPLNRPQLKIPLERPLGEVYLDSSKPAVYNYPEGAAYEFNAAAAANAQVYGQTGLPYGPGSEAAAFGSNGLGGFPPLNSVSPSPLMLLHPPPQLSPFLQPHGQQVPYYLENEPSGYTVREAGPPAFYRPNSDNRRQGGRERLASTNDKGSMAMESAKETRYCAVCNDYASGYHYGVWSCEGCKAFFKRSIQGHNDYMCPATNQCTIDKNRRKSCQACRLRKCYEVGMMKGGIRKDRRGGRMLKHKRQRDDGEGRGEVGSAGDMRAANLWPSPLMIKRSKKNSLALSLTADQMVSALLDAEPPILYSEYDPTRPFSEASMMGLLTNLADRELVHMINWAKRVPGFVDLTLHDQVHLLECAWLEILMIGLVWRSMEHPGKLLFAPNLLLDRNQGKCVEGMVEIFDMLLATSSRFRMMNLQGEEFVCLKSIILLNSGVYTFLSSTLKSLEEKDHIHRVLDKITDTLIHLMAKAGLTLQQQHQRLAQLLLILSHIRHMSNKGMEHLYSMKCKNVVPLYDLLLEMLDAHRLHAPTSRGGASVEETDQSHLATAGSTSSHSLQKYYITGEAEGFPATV

[3] = target: Gamma-aminobutyric acid receptor subunit alpha-1 (Rattus norvegicus, UniProt P62813)
[4] = target: T4, 5-hydroxytryptamine receptor 1A (Homo sapiens, UniProt P08908); type: functional, cell-based
T4 sequence (P08908 whole entry): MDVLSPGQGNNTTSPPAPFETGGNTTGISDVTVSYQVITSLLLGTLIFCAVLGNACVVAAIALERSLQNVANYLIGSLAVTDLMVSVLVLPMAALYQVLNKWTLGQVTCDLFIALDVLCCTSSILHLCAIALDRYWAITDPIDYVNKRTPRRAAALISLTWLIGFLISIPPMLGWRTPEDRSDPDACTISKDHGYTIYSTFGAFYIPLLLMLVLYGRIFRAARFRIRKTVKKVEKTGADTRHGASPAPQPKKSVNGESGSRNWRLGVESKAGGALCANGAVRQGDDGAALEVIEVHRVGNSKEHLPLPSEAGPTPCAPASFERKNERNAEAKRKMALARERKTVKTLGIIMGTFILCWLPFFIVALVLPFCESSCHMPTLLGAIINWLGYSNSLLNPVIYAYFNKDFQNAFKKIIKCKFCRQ

[5] = target: 5-hydroxytryptamine receptor 2B (Homo sapiens, UniProt P41595); type: functional, cell-based
[6] = target: Voltage-gated inwardly rectifying potassium channel KCNH2 (Homo sapiens, UniProt Q12809); type: functional; conditions: read-out: AC50
[7] = target: 3',5'-cyclic-AMP phosphodiesterase 4D (Homo sapiens, UniProt Q08499); type: functional
Thromboxane A2 receptor = target: T5, Thromboxane A2 receptor (Homo sapiens, UniProt P21731)
T5 sequence (P21731 whole entry): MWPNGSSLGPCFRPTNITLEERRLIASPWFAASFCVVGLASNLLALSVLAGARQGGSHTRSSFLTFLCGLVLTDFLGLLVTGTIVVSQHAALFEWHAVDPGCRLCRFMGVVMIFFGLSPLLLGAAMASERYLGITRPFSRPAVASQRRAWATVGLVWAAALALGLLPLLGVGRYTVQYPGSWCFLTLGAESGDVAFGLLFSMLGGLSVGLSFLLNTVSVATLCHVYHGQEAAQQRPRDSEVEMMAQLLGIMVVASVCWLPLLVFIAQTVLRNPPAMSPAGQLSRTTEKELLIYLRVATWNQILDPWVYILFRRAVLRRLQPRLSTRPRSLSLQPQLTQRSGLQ

D(3) dopamine receptor = D(3) dopamine receptor (Homo sapiens, UniProt P35462)
Also: assay procedure not described here.

Chain of 5-hydroxytryptamine receptor 2B (P41595 whole entry): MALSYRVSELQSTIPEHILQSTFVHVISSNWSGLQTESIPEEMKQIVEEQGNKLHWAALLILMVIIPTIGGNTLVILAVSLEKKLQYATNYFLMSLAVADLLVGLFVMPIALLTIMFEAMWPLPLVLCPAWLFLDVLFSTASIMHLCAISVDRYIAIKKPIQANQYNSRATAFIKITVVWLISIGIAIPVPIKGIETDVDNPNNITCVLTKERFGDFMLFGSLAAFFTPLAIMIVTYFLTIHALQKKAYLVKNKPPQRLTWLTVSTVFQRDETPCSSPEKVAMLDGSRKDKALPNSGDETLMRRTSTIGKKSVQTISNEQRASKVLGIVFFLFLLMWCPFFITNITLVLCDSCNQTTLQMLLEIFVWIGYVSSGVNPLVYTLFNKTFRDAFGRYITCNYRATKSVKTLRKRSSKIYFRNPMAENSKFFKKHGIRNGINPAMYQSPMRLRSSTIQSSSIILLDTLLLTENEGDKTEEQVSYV
Chain of Gamma-aminobutyric acid receptor subunit alpha-1 (P62813 whole entry): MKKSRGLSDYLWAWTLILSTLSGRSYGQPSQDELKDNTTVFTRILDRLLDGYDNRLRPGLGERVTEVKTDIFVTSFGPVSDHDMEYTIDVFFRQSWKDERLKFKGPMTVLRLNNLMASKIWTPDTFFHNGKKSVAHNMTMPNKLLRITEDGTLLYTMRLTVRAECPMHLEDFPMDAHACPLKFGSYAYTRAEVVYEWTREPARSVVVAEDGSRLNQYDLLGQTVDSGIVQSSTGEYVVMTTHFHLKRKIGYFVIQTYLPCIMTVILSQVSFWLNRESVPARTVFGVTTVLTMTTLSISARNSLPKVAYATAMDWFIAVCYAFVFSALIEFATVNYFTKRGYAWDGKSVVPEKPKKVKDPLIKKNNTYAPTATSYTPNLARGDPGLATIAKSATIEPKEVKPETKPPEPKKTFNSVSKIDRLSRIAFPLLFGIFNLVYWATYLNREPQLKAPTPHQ
Chain of D(3) dopamine receptor (P35462 whole entry): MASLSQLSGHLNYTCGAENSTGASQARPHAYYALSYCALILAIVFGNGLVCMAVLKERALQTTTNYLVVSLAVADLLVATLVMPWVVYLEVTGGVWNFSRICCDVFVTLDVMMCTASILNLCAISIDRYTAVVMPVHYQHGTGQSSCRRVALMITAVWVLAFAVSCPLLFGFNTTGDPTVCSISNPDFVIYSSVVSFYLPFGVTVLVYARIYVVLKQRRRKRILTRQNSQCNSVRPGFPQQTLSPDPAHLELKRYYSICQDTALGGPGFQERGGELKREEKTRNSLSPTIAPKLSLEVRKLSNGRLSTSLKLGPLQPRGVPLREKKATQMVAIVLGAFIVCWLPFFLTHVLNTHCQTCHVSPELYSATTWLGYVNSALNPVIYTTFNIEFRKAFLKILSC
Chain of Voltage-gated inwardly rectifying potassium channel KCNH2 (Q12809 whole entry): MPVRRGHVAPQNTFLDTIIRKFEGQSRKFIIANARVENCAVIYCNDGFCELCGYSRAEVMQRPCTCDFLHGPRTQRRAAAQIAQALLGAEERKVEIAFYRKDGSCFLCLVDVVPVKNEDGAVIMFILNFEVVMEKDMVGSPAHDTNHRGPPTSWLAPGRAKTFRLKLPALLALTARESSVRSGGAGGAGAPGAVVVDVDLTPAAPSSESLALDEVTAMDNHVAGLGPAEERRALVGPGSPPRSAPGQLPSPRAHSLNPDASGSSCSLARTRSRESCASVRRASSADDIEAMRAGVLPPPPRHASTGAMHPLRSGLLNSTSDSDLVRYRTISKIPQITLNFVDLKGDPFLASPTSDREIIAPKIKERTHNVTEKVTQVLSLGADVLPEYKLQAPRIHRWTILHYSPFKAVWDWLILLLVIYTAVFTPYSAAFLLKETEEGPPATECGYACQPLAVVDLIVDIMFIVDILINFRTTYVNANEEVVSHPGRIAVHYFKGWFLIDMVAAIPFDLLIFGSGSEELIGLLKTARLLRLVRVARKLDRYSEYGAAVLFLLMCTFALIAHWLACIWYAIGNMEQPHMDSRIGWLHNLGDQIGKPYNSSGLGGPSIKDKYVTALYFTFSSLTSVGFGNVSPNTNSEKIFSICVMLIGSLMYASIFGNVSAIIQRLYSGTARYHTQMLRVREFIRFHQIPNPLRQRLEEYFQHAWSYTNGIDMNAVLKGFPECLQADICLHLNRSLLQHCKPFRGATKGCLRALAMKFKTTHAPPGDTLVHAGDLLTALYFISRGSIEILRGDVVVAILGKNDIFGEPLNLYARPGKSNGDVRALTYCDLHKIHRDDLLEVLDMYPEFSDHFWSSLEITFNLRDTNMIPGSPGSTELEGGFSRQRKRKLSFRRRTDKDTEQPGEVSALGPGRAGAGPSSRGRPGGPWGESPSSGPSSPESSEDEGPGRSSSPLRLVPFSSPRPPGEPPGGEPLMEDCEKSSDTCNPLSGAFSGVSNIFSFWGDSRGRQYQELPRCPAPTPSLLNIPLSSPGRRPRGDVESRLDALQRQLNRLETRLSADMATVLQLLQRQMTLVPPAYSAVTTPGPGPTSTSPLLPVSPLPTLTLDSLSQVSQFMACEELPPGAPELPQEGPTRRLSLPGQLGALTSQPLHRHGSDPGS
Chain of 3',5'-cyclic-AMP phosphodiesterase 4D (Q08499 whole entry): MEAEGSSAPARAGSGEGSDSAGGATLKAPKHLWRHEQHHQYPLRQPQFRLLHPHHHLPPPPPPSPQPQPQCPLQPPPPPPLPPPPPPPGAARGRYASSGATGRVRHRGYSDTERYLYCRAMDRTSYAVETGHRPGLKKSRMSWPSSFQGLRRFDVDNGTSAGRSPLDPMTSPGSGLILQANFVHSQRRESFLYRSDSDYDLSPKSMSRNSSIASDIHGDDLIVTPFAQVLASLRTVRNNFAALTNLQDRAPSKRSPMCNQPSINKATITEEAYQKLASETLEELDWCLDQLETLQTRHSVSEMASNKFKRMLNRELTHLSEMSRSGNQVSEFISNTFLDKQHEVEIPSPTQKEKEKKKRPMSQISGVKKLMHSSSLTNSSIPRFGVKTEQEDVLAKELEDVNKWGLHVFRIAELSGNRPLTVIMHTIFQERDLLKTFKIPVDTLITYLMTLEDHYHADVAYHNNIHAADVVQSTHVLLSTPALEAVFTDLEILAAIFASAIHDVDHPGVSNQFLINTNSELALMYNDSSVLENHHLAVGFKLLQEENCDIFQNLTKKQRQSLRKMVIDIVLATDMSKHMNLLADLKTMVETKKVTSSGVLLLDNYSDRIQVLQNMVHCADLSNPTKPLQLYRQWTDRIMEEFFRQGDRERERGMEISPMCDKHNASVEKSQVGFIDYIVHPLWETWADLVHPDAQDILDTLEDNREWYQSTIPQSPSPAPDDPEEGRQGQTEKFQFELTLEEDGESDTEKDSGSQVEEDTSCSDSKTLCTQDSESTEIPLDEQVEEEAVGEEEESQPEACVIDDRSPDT

| SMILES | AC50 [1] [µM] | AC50 [2] [µM] | AC50 (Estrogen receptor) [µM] | AC50 [3] [µM] | AC50 [4] [µM] | AC50 [5] [µM] | AC50 [6] [µM] | AC50 [7] | AC50 (Thromboxane A2 receptor) [µM] | AC50 (D(3) dopamine receptor) [µM] |
| --- | --- | --- | --- | --- | --- | --- | --- | --- | --- | --- |
| CC1(C)O[C@@H]2C[C@H]3[C@@H]4CCC5=CC(=O)C=C[C@]5(C)[C@H]4[C@@H](O)C[C@]3(C)[C@]2(C(=O)CO)O1 [DESONIDE] | > 30 | > 10 | > 30 | > 10 | > 10 | > 10 | > 30 | > 30 µM | > 10 | > 30 |
| C=CCN1CCCC1CNC(=O)c1cc(S(N)(=O)=O)cc(OC)c1OC (stereo not given) [VERALIPRIDE] | > 30 | 10 | > 30 | > 30 | 3.6 | > 30 | 7.6 | > 30 µM | > 30 | 0.003 |
| O=C(O)C[C@H](O)C[C@H](O)/C=C/c1c(C2CC2)nc2ccccc2c1-c1ccc(F)cc1 [PITAVASTATIN] | > 30 | > 30 | > 10 | > 10 | > 10 | > 10 | > 30 | 0.93 µM and 0.67 µM | > 10 | > 30 |
| Clc1ccc(CCCOCCCN2CCCCC2)cc1 [PITOLISANT] | > 30 | 6 | > 30 | > 30 | > 30 | > 30 | 1.7 | > 30 µM | > 30 | > 30 |
| Nc1nc(/C(=C/CC(=O)O)C(=O)N[C@@H]2C(=O)N3C(C(=O)O)=CCS[C@H]23)cs1 [CEFTIBUTEN] | > 30 | > 30 | > 30 | > 30 | > 30 | > 30 | > 30 | > 30 µM | > 30 | > 30 |
| CN1C(=O)C(O)N=C(c2ccccc2Cl)c2cc(Cl)ccc21 (stereo not given) [LORMETAZEPAM] | > 30 | > 30 | > 30 | > 30 | > 30 | > 30 | > 30 | 5.6 µM | > 30 | > 30 |
| CCOC(=O)[C@H](CCc1ccccc1)N[C@@H](C)C(=O)N1C(=O)N(C)C[C@H]1C(=O)O | > 30 | > 30 | > 30 | > 30 | > 30 | > 30 | > 30 | > 30 µM | > 30 | > 30 |
| O=C(O)CCCCCCNC1c2ccccc2CCc2ccccc21 [AMINEPTINE] | > 30 | > 30 | > 30 | > 30 | > 30 | > 30 | > 30 | > 30 µM | > 30 | > 30 |
| C=CCC1(CC(C)C)C(=O)NC(=O)NC1=O [BUTALBITAL] | > 30 | > 30 | > 10 | > 10 | > 10 | > 10 | > 30 | > 30 µM | > 10 | > 30 |
